Source: patent US9249096B2, “Pyrrolinone carboxamide compounds useful as endothelial lipase inhibitors” (Bristol-Myers Squibb Company, priority 2011, dated 2016)

Target: endothelial lipase (EL) (Homo sapiens (Human), UniProt Q9Y5X9)
Assay: Endothelial lipase (EL) enzymatic assay with fluorescent substrate A10070 in DMPG vesicles
Type: biochemical
Details: conditioned media from HT-1080 cells overexpressing endogenous EL; 20 min preincubation at 37° C.; read-out: HLE_EL_CRC IC50
Procedure: Endothelial lipase activity was measured using a fluorescent substrate, A10070, (Invitrogen, CA) doped into an artificial vesicle containing DMPG (Avanti Polar Lipids) as the excipient. Vesicles were prepared by combining 285 uL of 1 mM DMPG in a 1:1 mixture of MeOH and CHCl3 with 15 uL of 1 mM A10070 in a 1:1 mixture of MeOH and CHCl3. The mixture was dried under nitrogen and resuspended in 150 uL of 50 mM HEPES pH 8.0 buffer containing 100 mM NaCl and 0.2 mM EDTA. The sample was allowed to sit at rt for 15 min and then was sonicated 3×4 mins on ice with a Branson Sonicator using duty cycle 1. This preparation provides vesicles with a mole fraction of 0.05 for the FRET substrate.
The enzymatic assay was measured using white, opaque 96-well half area plates. Each well contained 60 uL of assay buffer (50 mM HEPES pH 8.0, 50 mM NaCl and 1 mM CaCl2) and 2 ul of a DMSO solution containing compound of interest. Conditioned media obtained from HT-1080 cells, which were transformed by RAGE technology (Athersys) to overexpress endogenous EL, was added and the reaction was allowed to incubate for 20 min at 37° C. with gentle agitation. The reaction was started by the addition of 20 uL of a 1:4 dilution of vesicles. The final total reaction volume was 100 uL. The reaction rates were measured on a Gemini plate reader with an excitation wavelength of 488 nm and a emission of 530 nm. Readings were taken every 20 seconds for 10 min with agitation between each reading. The slope of the linear portion of the readout was used to calculate the rate of the reaction.
The exemplified examples disclosed in the present invention were tested in the EL assay described above and found having EL inhibitory activity.

endothelial lipase (EL), sequence (Q9Y5X9 21-500): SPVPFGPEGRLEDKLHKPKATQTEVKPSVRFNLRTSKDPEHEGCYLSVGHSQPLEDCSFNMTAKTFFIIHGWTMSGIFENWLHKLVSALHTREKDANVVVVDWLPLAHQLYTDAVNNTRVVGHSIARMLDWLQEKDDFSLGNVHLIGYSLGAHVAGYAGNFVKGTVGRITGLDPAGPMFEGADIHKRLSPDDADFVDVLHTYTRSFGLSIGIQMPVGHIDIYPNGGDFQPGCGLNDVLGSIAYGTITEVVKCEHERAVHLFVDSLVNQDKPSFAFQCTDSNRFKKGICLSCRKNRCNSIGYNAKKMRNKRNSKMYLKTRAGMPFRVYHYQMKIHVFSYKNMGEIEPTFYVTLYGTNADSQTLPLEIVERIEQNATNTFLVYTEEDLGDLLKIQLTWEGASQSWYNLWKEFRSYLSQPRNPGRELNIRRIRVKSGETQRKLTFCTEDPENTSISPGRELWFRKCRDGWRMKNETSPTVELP

Structure (SMILES)	IC50
CN1C(=O)C(O)=C(C(=O)NCCCc2ccc(Cl)c(Cl)c2)C1CCc1ccccc1 (single isomer, unassigned; isomer a) [Example 195, N-(3-(3,4-dichlorophenyl)propyl)-4-hydroxy-1-methyl-5-oxo-2-phenethyl-2,5-dihydro-1H-pyrrole-3-carboxamide (isomer A)]	523 nM
CN1CC(C(=O)NCCc2ccc(Cl)c(Cl)c2)=C(O)C1=O [Example 1, N-(3,4-dichlorophenethyl)-4-hydroxy-1-methyl-5-oxo-2,5-dihydro-1H-pyrrole-3-carboxamide]	528 nM
CN1CC(C(=O)NCCc2ccccc2)=C(O)C1=O [Example 3, 4-hydroxy-1-methyl-5-oxo-N-phenethyl-2,5-dihydro-1H-pyrrole-3-carboxamide]	2950 nM
CN1CC(C(=O)NCCc2ccc(Cl)cc2)=C(O)C1=O [Example 5, N-(4-chlorophenethyl)-4-hydroxy-1-methyl-5-oxo-2,5-dihydro-1H-pyrrole-3-carboxamide]	559 nM
CN1C(=O)C(O)=C(C(=O)NCCCc2ccc(Cl)c(Cl)c2)C1C(C)(C)C (stereo not drawn) [Example 17, 2-tert-butyl-N-(3-(3,4-dichlorophenyl)propyl)-4-hydroxy-1-methyl-5-oxo-2,5-dihydro-1H-pyrrole-3-carboxamide]	430 nM
Cc1ccc(CC2C(C(=O)NCCCc3ccc(Cl)c(Cl)c3)=C(O)C(=O)N2C)cc1 (stereo not drawn) [Example 30, N-(3-(3,4-dichlorophenyl)propyl)-4-hydroxy-1-methyl-2-(4-methylbenzyl)-5-oxo-2,5-dihydro-1H-pyrrole-3-carboxamide]	584 nM
O=C(NCCCc1ccc(Cl)c(Cl)c1)C1=C(O)C(=O)N(C2CCC2)C1 [Example 39, 1-cyclobutyl-N-(3-(3,4-dichlorophenyl)propyl)-4-hydroxy-5-oxo-2,5-dihydro-1H-pyrrole-3-carboxamide]	5.09 nM
O=C(NCCCc1ccc(Cl)c(Cl)c1)C1=C(O)C(=O)N(Cc2ccccc2)C1 [Example 40, 1-benzyl-N-(3-(3,4-dichlorophenyl)propyl)-4-hydroxy-5-oxo-2,5-dihydro-1H-pyrrole-3-carboxamide]	3.65 nM
CC(C)CN1CC(C(=O)NCCCc2ccc(Cl)c(Cl)c2)=C(O)C1=O [Example 42, N-(3-(3,4-dichlorophenyl)propyl)-4-hydroxy-1-isobutyl-5-oxo-2,5-dihydro-1H-pyrrole-3-carboxamide]	2.93 nM
O=C(NCCCc1ccc(Cl)c(Cl)c1)C1=C(O)C(=O)N(CCc2ccccc2)C1 [Example 44, N-(3-(3,4-dichlorophenyl)propyl)-4-hydroxy-5-oxo-1-phenethyl-2,5-dihydro-1H-pyrrole-3-carboxamide]	3.22 nM
CC(C)CCN1CC(C(=O)NCCCc2ccc(Cl)c(Cl)c2)=C(O)C1=O [Example 45, N-(3-(3,4-dichlorophenyl)propyl)-4-hydroxy-1-isopentyl-5-oxo-2,5-dihydro-1H-pyrrole-3-carboxamide]	2.71 nM
CCCCN1CC(C(=O)NCCCc2ccc(Cl)c(Cl)c2)=C(O)C1=O [Example 46, 1-butyl-N-(3-(3,4-dichlorophenyl)propyl)-4-hydroxy-5-oxo-2,5-dihydro-1H-pyrrole-3-carboxamide]	3.25 nM
O=C(NCCCc1ccc(Cl)c(Cl)c1)C1=C(O)C(=O)N(Cc2cccc(Cl)c2)C1 [Example 47, 1-(3-chlorobenzyl)-N-(3-(3,4-dichlorophenyl)propyl)-4-hydroxy-5-oxo-2,5-dihydro-1H-pyrrole-3-carboxamide]	3.3 nM
O=C(NCCCc1ccc(Cl)c(Cl)c1)C1=C(O)C(=O)N(Cc2cccc(F)c2)C1 [Example 50, N-(3-(3,4-dichlorophenyl)propyl)-1-(3-fluorobenzyl)-4-hydroxy-5-oxo-2,5-dihydro-1H-pyrrole-3-carboxamide]	5.99 nM
O=C(NCCCc1ccc(Cl)c(Cl)c1)C1=C(O)C(=O)N(Cc2ccc(F)cc2)C1 [Example 51, N-(3-(3,4-dichlorophenyl)propyl)-1-(4-fluorobenzyl)-4-hydroxy-5-oxo-2,5-dihydro-1H-pyrrole-3-carboxamide]	5.52 nM
O=C(NCCCc1ccc(Cl)c(Cl)c1)C1=C(O)C(=O)N(CCc2ccccc2Cl)C1 [Example 53, 1-(2-chlorophenethyl)-N-(3-(3,4-dichlorophenyl)propyl)-4-hydroxy-5-oxo-2,5-dihydro-1H-pyrrole-3-carboxamide]	5.24 nM
CC(C)(C)CCN1CC(C(=O)NCCCc2ccc(Cl)c(Cl)c2)=C(O)C1=O [Example 55, N-(3-(3,4-dichlorophenyl)propyl)-1-(3,3-dimethylbutyl)-4-hydroxy-5-oxo-2,5-dihydro-1H-pyrrole-3-carboxamide]	5.8 nM
CCOCCN1CC(C(=O)NCCCc2ccc(Cl)c(Cl)c2)=C(O)C1=O [Example 57, N-(3-(3,4-dichlorophenyl)propyl)-1-(2-ethoxyethyl)-4-hydroxy-5-oxo-2,5-dihydro-1H-pyrrole-3-carboxamide]	6.3 nM
O=C(NCCCc1ccc(Cl)c(Cl)c1)C1=C(O)C(=O)N(Cc2cc(Cl)cc(Cl)c2)C1 [Example 60, 1-(3,5-dichlorobenzyl)-N-(3-(3,4-dichlorophenyl)propyl)-4-hydroxy-5-oxo-2,5-dihydro-1H-pyrrole-3-carboxamide]	5.64 nM
O=C(NCCCc1ccc(Cl)c(Cl)c1)C1=C(O)C(=O)N(CCc2ccc(F)cc2)C1 [Example 64, N-(3-(3,4-dichlorophenyl)propyl)-1-(4-fluorophenethyl)-4-hydroxy-5-oxo-2,5-dihydro-1H-pyrrole-3-carboxamide]	5.61 nM
CC(C)OCCN1CC(C(=O)NCCCc2ccc(Cl)c(Cl)c2)=C(O)C1=O [Example 65, N-(3-(3,4-dichlorophenyl)propyl)-4-hydroxy-1-(2-isopropoxyethyl)-5-oxo-2,5-dihydro-1H-pyrrole-3-carboxamide]	1.6 nM
CN1CC(C(=O)NCCCc2ccccc2)=C(O)C1=O [Example 166, 4-hydroxy-1-methyl-5-oxo-N-(3-phenylpropyl)-2,5-dihydro-1H-pyrrole-3-carboxamide]	6440 nM
CN1CC(C(=O)NCCCc2c(Cl)cccc2Cl)=C(O)C1=O [Example 208, N-(3-(2,6-dichlorophenyl)propyl)-4-hydroxy-1-methyl-5-oxo-2,5-dihydro-1H-pyrrole-3-carboxamide]	384 nM
CC(CCc1ccc(Cl)c(Cl)c1)NC(=O)C1=C(O)C(=O)N(C)C1 (stereo not drawn) [Example 229, N-(4-(3,4-dichlorophenyl)butan-2-yl)-4-hydroxy-1-methyl-5-oxo-2,5-dihydro-1H-pyrrole-3-carboxamide]	4550 nM
CC(C)C(CCc1ccc(Cl)c(Cl)c1)NC(=O)C1=C(O)C(=O)N(C)C1 (stereo not drawn) [Example 230, N-(1-(3,4-dichlorophenyl)-4-methylpentan-3-yl)-4-hydroxy-1-methyl-5-oxo-2,5-dihydro-1H-pyrrole-3-carboxamide]	9640 nM
CN1CC(C(=O)NC(CCc2ccc(Cl)c(Cl)c2)c2ccccc2)=C(O)C1=O (stereo not drawn) [Example 235, N-(3-(3,4-dichlorophenyl)-1-phenylpropyl)-4-hydroxy-1-methyl-5-oxo-2,5-dihydro-1H-pyrrole-3-carboxamide]	3060 nM
CCN1CC(C(=O)NCCCc2cccc(OC)n2)=C(O)C1=O [Example 265, 1-ethyl-4-hydroxy-N-(3-(6-methoxypyridin-2-yl)propyl)-5-oxo-2,5-dihydro-1H-pyrrole-3-carboxamide]	3460 nM
